The test system of experiment [1] is circadian rhythms in humans (jet lag). The experiment can be described thus: Example 2: Subject A, flight Melbourne-Munster-Melbourne, melatonin at local bedtime. The format is in vivo, human. The following applies: 5 mg oral capsule. From the text:
|Flight from Melbourne → Munster, W. Germany → Melbourne. |Details of activity schedule, sleeping time, melatonin administration. As in Example 1, Subject A took melatonin packaged in a gelatine capsule.

Experiment [2] has as its system circadian rhythms in humans (jet lag, body temperature rhythm). In words: Example 4: Subject A, round-the-world flight, melatonin with rectal temperature record (Vitalog PMS8). The format is in vivo, human. From the text: Subject A Flight from Melbourne→Geneva→London→Chapel Hill, N.C.→Melbourne 18.9.83-30.9.83. […] During this experiment use was made of a portable Vitalog PMS8 mini computer to record the temperature of Subject A. The Vitalog PMS8 recorded body temperature at ten minute intervals utilizing a rectal temperature probe. […] A discussion of the temperature record follows. During this flight Subject A wore the Vitalog PMS8 mini computer and rectal probe for the continuous recording of their deep body temperature. The equipment malfunctioned after 4 days due to premature battery failure. From 18.9.83- 23.9.83 Subject A kept a detailed daily log of quality and nature of sleep, modd, and alertness according to a technique developed by NASA. […] The dark, dotted regions represent dark periods. The time scale is for Melbourne time no matter where Subject A is identified by one of the letters A, B, C, D or E. Recordings of dark periods B, C and D have been repeated to give continuity to the record. The black arrows identify the times of administration of melatonin.

Experiment [3] deals with circadian rhythms in humans (jet lag). The experiment can be described thus: Example 5: Subject B, double-blind trial, Capsule A (melatonin) vs Capsule B (placebo), flight Melbourne-Geneva-Rotterdam-Melbourne. The format is in vivo, human. From the text: Subject B Flight from Melbourne→Geneva→Rotterdam→Melbourne 30.1.84-19.2.84
This was a double-blind trial. The subject, a Clinical Professor who had never taken Melatonin before, was given two bottles labelled A and B containing identical-looking gelatin capsules, and told to take one capsule A on going to bed, and again if awaking in the middle of the night, for the first 4 days after arrival in Geneva. They were told to take one capsule B according to the same schedule after return to Melbourne, and to record the quality of each night's sleep and feelings during the daytime. Capsule A contained 5 mg Melatonin. and capsule B contained a placebo (sucrose). Only after the subject had completed their written report 4 days after returning to Melbourne were they told which pills contained Melatonin and which contained placebo.

Experiment [4] has the same test system. The experiment can be described thus: Example 8: Subject E, flight London-Melbourne. It counts as in vivo, human. The settings on record: 5 mg at bedtime; for symptoms of jet-lag: Easterly flight London-Melbourne. From the text:
Subject E Flight from London→Melbourne→London 30.12.83-16.1.84

Experiment [5] deals with hamsters, sheep, ferrets and deer. The following applies: physiological doses by mouth, implant or injection; cited from earlier work.
Setting [6] is: Capsule A = 5 mg Melatonin, Geneva.

Several values for one entry are separate records, joined by “and”; a condition that tells them apart may be missing. Identical values can stand only once. Entries after “also recorded” stand apart in the source; their conditions may differ. Where only a bound is given, the exact number is not on record here.

For the compound `COc1ccc2[nH]cc(CCNC(C)=O)c2c1` [melatonin, 5-methoxy-N-acetyltryptamine], the “sleep after taking melatonin (diary, comment)” value in experiment [1] is “sleep well following both Westerly and Easterly flights”. Moreover, the “symptoms of jet lag (comment)” value in experiment [1] (8-hour time zone change) is listed as “no symptoms of jet lag apart from tiredness on the second day after their return to Melbourne”. In experiment [1] (listed as Melatonin), the “feeling on awakening / during day after melatonin sleep (diary)” value is “Felt fresh and rested, much less tired; also recorded: feeling excellent; also recorded: feeling fine; also recorded: feeling good; also recorded: felt fresh and rested; also recorded: Felt tired during the day; also recorded: hangover”; the “sleep after taking melatonin (diary, comment)” value is given as “fell asleep; also recorded: slept deeply; also recorded: good sleep; also recorded: slept very well; also recorded: slept well”. Moreover, in experiment [2] (5 mg oral, listed as Melatonin), the “feeling on awakening / during day after melatonin sleep (diary)” value was “feeling excellent; also recorded: feeling drowsy, slight headache; also recorded: feeling fine; also recorded: feeling good; also recorded: Felt fine; also recorded: tired and sleepy and cold; also recorded: Felt very sleepy, but this soon passed”; the “sleep after taking melatonin (diary)” value is reported as “Fell asleep at once; also recorded: Did not fall asleep; also recorded: half an hour; also recorded: slept soundly”; the “time to fall asleep after taking melatonin (diary)” value was 30 min and 25 min. For the same compound, the “subjective symptoms of jet-lag (comment)” value in experiment [2] (5 mg oral, round-the-world flight in Westerly direction) is “no subjective symptoms of jet-lag”. Further, the “time of maximal body temperatures” value in experiment [2] (after arrival in Geneva, rectal probe) is “around midnight Melbourne time”. Moreover, the “re-entrainment of body temperature rhythm” value in experiment [2] (rectal temperature, after arrival in Geneva, FIG. 1) is listed as “re-entrained extremely rapidly to Geneva time”. Also, in experiment [2] (third and fourth sleep periods in Geneva, rectal probe), the “time of lowest body temperatures” value was “around mid-day Melbourne time”. Besides, in experiment [3], the “time after entering new time zone until able to sleep at period coinciding with early morning in zone of departure” value was ≤ 24 h. Further, the “subject's blinded conclusion on effect of capsule” value in experiment [3] (5 mg melatonin per capsule, first 4 days in Geneva, double-blind) is “making them less tired and more alert in the meetings at WHO in Geneva”. In experiment [3] (setting [6]), the “feeling during day (diary)” value is “felt tired in morning” and the “sleep after taking capsule (diary)” value is reported as “fell asleep again; also recorded: slept well; also recorded: sleep well”. Besides, in experiment [4], the “sleep after taking melatonin” value is “slept well” and the symptoms of jet-lag result is “no signs of jet-lag on the 3rd day”. In addition, in experiment [4] (listed as Melatonin), the symptoms of jet-lag entry is “no symptoms of jet-lag; also recorded: appeared to prevent all symptoms of jet-lag” and the “sleep after taking melatonin” value was “excellent night's sleep”. Further, the “timing of the annual breeding season” value in experiment [5] is reported as “capable of altering the timing of the annual breeding season”.

The values are drawn from patent publication US4665086A, “Method for minimizing disturbances in circadian rhythms of bodily performance and function” (priority 1983, dated 1987).
